Like-named read-outs stand apart in the source and are kept apart here.
Key:
[1] = molecular target: T1, ribonucleotide reductase (Homo sapiens, UniProt P23921); conditions: cited from earlier work; for inhibition of ribonucleotide reductase (in words): 5'-triphosphate of the nucleoside analogue
T1 sequence (P23921 1-792): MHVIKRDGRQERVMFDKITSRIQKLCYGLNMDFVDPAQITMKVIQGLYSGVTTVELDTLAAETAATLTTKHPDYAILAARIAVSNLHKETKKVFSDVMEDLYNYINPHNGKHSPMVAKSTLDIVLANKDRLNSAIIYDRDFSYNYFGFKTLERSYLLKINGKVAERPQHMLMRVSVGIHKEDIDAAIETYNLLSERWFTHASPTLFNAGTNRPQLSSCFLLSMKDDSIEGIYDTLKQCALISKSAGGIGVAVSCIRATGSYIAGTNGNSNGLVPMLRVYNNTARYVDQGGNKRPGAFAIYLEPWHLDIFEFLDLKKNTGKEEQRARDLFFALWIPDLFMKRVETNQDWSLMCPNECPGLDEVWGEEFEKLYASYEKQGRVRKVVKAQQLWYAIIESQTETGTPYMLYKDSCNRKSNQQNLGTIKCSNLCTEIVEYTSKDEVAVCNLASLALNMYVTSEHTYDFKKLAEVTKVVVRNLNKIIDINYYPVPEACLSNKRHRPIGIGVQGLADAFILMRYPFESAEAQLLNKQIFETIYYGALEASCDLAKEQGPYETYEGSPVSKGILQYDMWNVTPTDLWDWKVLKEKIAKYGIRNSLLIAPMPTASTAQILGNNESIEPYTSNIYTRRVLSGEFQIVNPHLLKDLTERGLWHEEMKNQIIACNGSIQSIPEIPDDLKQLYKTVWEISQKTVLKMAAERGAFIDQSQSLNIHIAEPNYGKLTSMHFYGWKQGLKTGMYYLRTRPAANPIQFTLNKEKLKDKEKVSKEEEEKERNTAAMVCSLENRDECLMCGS

[2] = system: CCRF-CEM; assay: Cytotoxicity, inhibition of cell proliferation to 50% of untreated controls; format: cell-based, human; conditions: read-out: Cytotoxicity as IC50, CCRF-CEM
Source text: (§1) In contrast to the previously reported 2'-substituted 9-β-D-arabinofuranosyl-2-haloadenines, the 2'-fluoro compounds were quite cytotoxic to three human cell lines, H.Ep.-2, CCRF-CEM, and K562, and the murine lukemia line, L1210.
(§2) Obviously, to be useful as anticancer agents, the nucleosides of the present invention must show the ability to kill cells in vitro. […] One cell line (L1210) is a murine lukemia, whereas the other three are human neoplasms. […] Many people today emphasize the importance of toxicity to human cell lines.

[3] = system: H.Ep.-2; assay: as above; format: cell-based, human
Source text: as §1, §2

[4] = system: L1210; assay: as above; format: cell-based; conditions: Mus musculus; L1210 murine leukemia line; read-out: Cytotoxicity as IC50, L1210
Source text: as §1, §2

[5] = molecular target: E. coli purine nucleoside phosphorylase (Escherichia coli, UniProt P0ABP8); assay: Phosphorolysis of nucleosides by purine nucleoside phosphorylase; format: biochemical; conditions: 0.5 mM nucleoside, 50 mM pH 8.0 phosphate buffer, HPLC, incubation 30-240 min, read-out: % Cleavage
Source text: Subsequently, the phosphorolysis of these compounds were compared by E. coli purine nucleoside phosphorylase. The […] and 2'-deoxyribonucleosides are rapidly cleaved by this enzyme, whereas the […] nucleosides substituted at 2' by Cl, N3, or NH2 are almost completely resistant. The 2'-fluoro compounds are less resistant to cleavage, being cleaved at roughly one-third the rate of the […] and 2'-deoxynucleosides. This reduction in cleavage rate may be acceptable for pharmaceutical purposes as phosphorylation in mammalian cells is quite rapid.
More specifically, an enzyme reaction mixture consisting of 0.5 mM nucleoside substrate, 50 mM pH 8.0 phosphate buffer and purine nucleoside phosphorylase in a final volume of 1.0 mL was allowed to incubate for 30, 60, 120, 180 and 240 minutes, and the amounts of nucleoside and substrate remaining were determined by HPLC.

[6] = system: K562; assay: Cytotoxicity, inhibition of cell proliferation to 50% of untreated controls; format: cell-based, human
Source text: as §1, §2

[7] = system: P388 leukemia; assay: In vivo activity vs ip P388 leukemia, ip administration; set-up: species or system CD2F1 mice
Source text: This, coupled with the lower toxicity of the cleavage product, 2-chloroadenine, relative to 2-fluoroadenine, make this compound a preferred compound of the present invention. The following Table III provides a summary of the in vivo activity of the 9-(2-fluoro-2-deoxy-β-D-arabinofuranosyl)-2-haloadenines vs P388 leukemia cell line in which CD2F1 mice were implanted ip with 10^6 P388 leukemia cells on day 0 in accordance with the protocol of Waud et al [Cancer Res. 50:3232 (1990)].
In the above table, the optimal dose refers to mg/kg/dose (≤LD50); ILS refers to the increase in life span; and the log change refers to the change in viable tumor cell population at the end of therapy compared to that at the start of therapy, based on the median day of death among the animals that died. The data in this table is presented in accordance with the National Cancer Institute activity criteria for drug testing in which an ILS of 20-74% is considered moderate activity, and an ILS of 75% or more is considered good activity.

[8] = system: P388 leukemia; assay: Antitumor activity against ip P388 leukemia, oral administration; format: in vivo, mice; conditions: oral 67 mg/kg/dose
Protocol: In a similar test, compound 3d was administered orally and evaluated for antitumor activity against ip P388 leukemia cells. As the data in Table III indicates, the optimal regimen for the compound, administered ip, is in divided doses five on days 1, 5, and 9, a similar schedule was selected for the oral administration of this compound. In this set of experiments, an oral dosage of 67 mg/kg/dose, given q 6 h×4 on days 1, 5, and 9, effected a reduction in tumor burden of 1.7 log10 units, a figure which is approximately 2.5 log10 units less that that obtained in studies using ip drug administration.

[9] = system: K562 cells; conditions: cited from earlier work
[10] = relative to 9-β-D-arabinofuranosyl-2-fluoroadenine; cited from earlier work
[11] = HEp-2, H.Ep.-2 human cell line, read-out: Cytotoxicity as IC50, H.Ep.-2
[12] = K562 human cell line, read-out: Cytotoxicity as IC50, K562
[13] = 30 mg/kg/dose ip, q 3 h × 8 (Days 1, 5, 9)
[14] = 50 mg/kg/dose ip, q 3 h × 8 (Days 1, 5, 9)
[15] = 20 mg/kg/dose ip, q 3 h × 8 (Days 1, 5, 9)
[16] = 25 mg/kg/dose ip, q 3 h × 8 (Days 1, 5, 9)

Sequence of E. coli purine nucleoside phosphorylase (P0ABP8 2-239): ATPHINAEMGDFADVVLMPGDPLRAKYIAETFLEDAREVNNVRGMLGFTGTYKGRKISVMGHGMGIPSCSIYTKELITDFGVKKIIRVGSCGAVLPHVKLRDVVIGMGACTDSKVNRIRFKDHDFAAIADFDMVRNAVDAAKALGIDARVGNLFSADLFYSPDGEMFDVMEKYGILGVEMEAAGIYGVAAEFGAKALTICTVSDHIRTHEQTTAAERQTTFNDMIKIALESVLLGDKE

Nc1nc(Cl)nc2c1ncn2[C@@H]1O[C@H](COP(=O)(O)OP(=O)(O)OP(=O)(O)O)[C@@H](O)[C@@H]1F [2-chloro-9-(2-deoxy-2-fluoro-β-D-arabinofuranosyl)adenine 5'triphosphate]
inhibition of ribonucleotide reductase (in words) [1]: the same as that seen with 2-chloro-2'-deoxyadenosine 5'-triphosphate

Nc1nc(F)nc2c1ncn2[C@@H]1O[C@H](COP(=O)(O)OP(=O)(O)OP(=O)(O)O)[C@@H](O)[C@@H]1O [9-β-D-arabinofuranosyl-2-fluoroadenine 5'triphosphate]
inhibition of ribonucleotide reductase (in words) [1]: much less potent inhibitor
concentration inhibiting ribonucleotide reductase relative to 2-chloro-9-(2-deoxy-2-fluoro-β-D-arabinofuranosyl)adenine 5' triphosphate ([1]; ratio of concentrations required): 10 fold

Nc1nc(Br)nc2c1ncn2[C@H]1C[C@H](O)[C@@H](CO)O1 [Y = Br, X = H]
IC50 ([2]; CCRF-CEM human cell line): 20 nM
IC50 [3, 11]: 20 nM
IC50 [4]: 900 nM

Nc1nc(Br)nc2c1ncn2[C@@H]1O[C@H](CO)[C@@H](O)[C@@H]1O [Y = Br, X = OH]
IC50 [3, 11]: 4000 nM
IC50 [4]: 3000 nM

Nc1nc(Cl)nc2c1ncn2[C@H]1C[C@H](O)[C@@H](CO)O1 [Y = Cl, X = H, 2-chloro-2'-deoxyadenosine]
IC50 ([2]; CCRF-CEM human cell line): 3 nM
IC50 [3, 11]: 30 nM
IC50 [4]: 70 nM
metabolised at 500 µM [5]: > 99%

Nc1nc(Cl)nc2c1ncn2[C@@H]1O[C@H](CO)[C@@H](O)[C@@H]1O [Y = Cl, X = OH]
IC50 ([2]; CCRF-CEM human cell line): 10000 nM
IC50 [3, 11]: 3000 nM
IC50 [4]: < 3000 nM

Nc1nc(F)nc2c1ncn2[C@H]1C[C@H](O)[C@@H](CO)O1 [Y = F, X = H, 2-fluoro-2'-deoxyadenosine]
IC50 ([2]; CCRF-CEM human cell line): 200 nM
IC50 [3, 11]: 200 nM
IC50 [4]: 900 nM
metabolised at 500 µM [5]: > 99%

Nc1nc(F)nc2c1ncn2[C@@H]1O[C@H](CO)[C@@H](O)[C@@H]1O [Y = F, X = OH, 2-fluoro-9-β-D-arabinofuranosyladenine, reference compound]
IC50 ([2]; Homo sapiens, CCRF-CEM): 400 nM
IC50 ([3]; Homo sapiens, HEp-2, read-out: Cytotoxicity as IC50, H.Ep.-2): 9000 nM
IC50 ([6]; Homo sapiens, K562, read-out: Cytotoxicity as IC50, K562): 150 nM
metabolised at 500 µM [5]: 99%

Nc1nc(Br)nc2c1ncn2[C@@H]1O[C@H](CO)[C@@H](O)[C@@H]1F [compound 3b, 2-Bromo-9-(2-deoxy-2-fluoro-β-D-arabinofuranosyl)-9H-purin-6-amine]
IC50 ([2]; CCRF-CEM human cell line): 20 nM
IC50 [3, 11]: 220 nM
IC50 [6, 12]: 50 nM
IC50 [4]: 260 nM
metabolised at 500 µM [5]: 45%
Log10 change in viable tumor cell population [7, 13]: -1.0
Median % ILS (dying mice only) [7, 13]: +100%
Tumor-free Survivors [7, 13]: 0/6
Log10 change in viable tumor cell population [7, 14]: +1.6
Median % ILS (dying mice only) [7, 14]: +41%
Tumor-free Survivors [7, 14]: 0/6
Log10 change in viable tumor cell population ([7]; 200 mg/kg/dose ip, qd 1-5): +0.1
Median % ILS (dying mice only) ([7]; 200 mg/kg/dose ip, qd 1-5): +33%
Tumor-free Survivors ([7]; 200 mg/kg/dose ip, qd 1-5): 0/6

Nc1nc(Cl)nc2c1ncn2[C@@H]1O[C@H](CO)[C@@H](O)[C@@H]1F [compound 3d, 2-Chloro-9-(2-deoxy-2-fluoro-B-D-arabinofuranosyl)-2,0 9H-purin-6-amine]
IC50 ([2]; CCRF-CEM human cell line): 50 nM
IC50 [3, 11]: 12 nM
IC50 [6, 12]: 3 nM
IC50 [4]: 230 nM
metabolised at 500 µM [5]: 39%
Log10 change in viable tumor cell population [7, 15]: -6.6
Median % ILS (dying mice only) [7, 15]: +220%
Tumor-free Survivors [7, 15]: 1/6
Log10 change in viable tumor cell population [7, 16]: -2.8
Median % ILS (dying mice only) [7, 16]: +118%
Tumor-free Survivors [7, 16]: 0/5
Log10 change in viable tumor cell population ([7]; 100 mg/kg/dose ip, qd 1-5): -0.3
Median % ILS (dying mice only) ([7]; 100 mg/kg/dose ip, qd 1-5): +38%
Tumor-free Survivors ([7]; 100 mg/kg/dose ip, qd 1-5): 0/5
Log10 change in viable tumor cell population ([7]; 200 mg/kg/dose ip, qd 1-5): -1.6
Median % ILS (dying mice only) ([7]; 200 mg/kg/dose ip, qd 1-5): +59%
Tumor-free Survivors ([7]; 200 mg/kg/dose ip, qd 1-5): 0/3
reduction in tumor burden ([8]; q 6 h×4 on days 1, 5, and 9): 1.7 log10 units
reduction in tumor burden, shortfall versus ip drug administration ([8]; q 6 h×4 on days 1, 5, and 9, compared with ip): approximately 2.5 log10 units
inhibition of DNA synthesis [9]: inhibits DNA synthesis
solubility (in words) [10]: greater solubility

Nc1nc(F)nc2c1ncn2[C@@H]1O[C@H](CO)[C@@H](O)[C@@H]1F [compound 3g, 2-Fluoro-9-(2-deoxy-2-fluoro-β-D-arabinofuranosyl)-9H-purin-6-amine]
IC50 ([2]; CCRF-CEM human cell line): 140 nM
IC50 [3, 11]: 340 nM
IC50 [6, 12]: 300 nM
IC50 [4]: 380 nM
metabolised at 500 µM [5]: 10%
Log10 change in viable tumor cell population [7, 16]: -0.1
Median % ILS (dying mice only) [7, 16]: +81%
Tumor-free Survivors [7, 16]: 0/6
Log10 change in viable tumor cell population ([7]; 100 mg/kg/dose ip, qd 1-5): -1.8
Median % ILS (dying mice only) ([7]; 100 mg/kg/dose ip, qd 1-5): +63%
Tumor-free Survivors ([7]; 100 mg/kg/dose ip, qd 1-5): 0/3
